The values that follow come from US5972898A, “3',3-N-bis-substituted macrolide LHRH antagonists” (Abbott Laboratories, priority 1998, dated 1999).

Assay [1] has as its target T1, LHRH rat pituitary receptor (Rattus norvegicus, UniProt P30969).
T1 construct: from tissue; host or cells: rat pituitary
T1 sequence (P30969 1-327): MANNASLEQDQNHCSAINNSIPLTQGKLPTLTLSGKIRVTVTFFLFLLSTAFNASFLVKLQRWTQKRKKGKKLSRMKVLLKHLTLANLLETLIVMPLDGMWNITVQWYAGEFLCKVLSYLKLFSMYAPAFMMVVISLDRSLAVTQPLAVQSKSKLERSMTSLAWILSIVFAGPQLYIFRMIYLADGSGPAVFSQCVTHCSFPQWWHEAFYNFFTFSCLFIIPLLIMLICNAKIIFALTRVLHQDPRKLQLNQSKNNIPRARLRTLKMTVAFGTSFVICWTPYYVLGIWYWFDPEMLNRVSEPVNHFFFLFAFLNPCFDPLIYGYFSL
The assay can be described thus: LHRH rat pituitary receptor binding (pKI). The settings on record: in vitro; for Ki: read-out: pKI (receptor binding affinity) (converted). The procedure:
Representative compounds of the present invention were evaluated in in vitro tests for LHRH rat pituitary receptor binding (pKI) and for LH inhibition from rat pituitary cells for antagonist potency (pA2). […] The receptor binding affinity (pKI) is the negative equilibrium dissociation constants.

A further assay concerns the target T2, rat pituitary cells (Rattus norvegicus, UniProt P30969).
T2 construct: endogenous in cells; host or cells: rat pituitary cells
T2 sequence (P30969 1-327): T1 sequence (P30969 1-327)
The experiment in a line: LH inhibition from rat pituitary cells for antagonist potency (pA2). Type of assay: cell-based. As to conditions: negative log of antagonist concentration shifting the leuprolide response curve to two-fold higher concentration. Here is the method: Representative compounds of the present invention were evaluated in in vitro tests for LHRH rat pituitary receptor binding (pKI) and for LH inhibition from rat pituitary cells for antagonist potency (pA2). The tests employed the methods detailed in F. Haviv, et al. J. Med. Chem., 2340-2344 (1989). The receptor binding affinity (pKI) is the negative equilibrium dissociation constants.
The pA2 value is the negative logarithm of the concentration of antagonist which shifts the response curve produced by the agonist leuprolide to two-fold higher concentration. Leuprolide is the LHRH agonist having the structure pyro-Glu^1 -His^2 -Trp^3 -Ser^4 -Tyr^5 -D-Leu^6 -Leu^7 -Arg^8 -Pro^9 -NHEt and is disclosed and claimed in U.S. Pat. No. 4,005,063. Typically pA2 values of 7.0 or greater are indicative of good LHRH antagonist potency.

Take “3',3'-N-Bisdesmethyl-3',3'-N-biscyclobutyl-11-deoxy-11-[carboxy-(3,4-difluorophenethylamino)]-6-O-methyl-erythromycin A 11,12-(cyclic carbamate) [Example 18]”: the “pKI (receptor binding affinity)” value in assay [1] amounted to 9.40. In addition, the pA2 at rat pituitary cells stood at 8.34.

In the case of `CC[C@H]1OC(=O)[C@H](C)[C@@H](O[C@H]2C[C@@](C)(OC)[C@@H](O)[C@H](C)O2)[C@H](C)[C@@H](O[C@@H]2O[C@H](C)C[C@H](N(C3CCC3)C3CCC3)[C@H]2O)[C@](C)(OC)C[C@@H](C)C(=O)[C@H](C)[C@H]2N(CCc3ccc(Cl)c(Cl)c3)C(=O)O[C@]12C` [Example 2], the Ki in assay [1] is 3.16 nM. Also, the Kb on rat pituitary cells is 5.37 nM.

For `CC[C@H]1OC(=O)[C@H](C)[C@@H](O[C@H]2C[C@@](C)(OC)[C@@H](O)[C@H](C)O2)[C@H](C)[C@@H](O[C@@H]2O[C@H](C)C[C@H](N(C3CCC3)C3CCC3)[C@H]2O)[C@](C)(OC)C[C@@H](C)C(=O)[C@H](C)[C@H]2N(CCc3ccc(Cl)cc3)C(=O)O[C@]12C` [Example 4, 3',3'-N-Bisdesmethyl-3',3'-N-biscyclobutyl-11-deoxy-11-[carboxy-(4-chlorophenethylamino)]-6-O-methyl-erythromycin A 11,12-(cyclic carbamate)], the Ki in assay [1] is 2.4 nM. For the same molecule, the Kb on rat pituitary cells is 0.126 nM.

Consider `CC[C@H]1OC(=O)[C@H](C)[C@@H](O[C@H]2C[C@@](C)(OC)[C@@H](O)[C@H](C)O2)[C@H](C)[C@@H](O[C@@H]2O[C@H](C)C[C@H](N(C(C)C)C3CCC3)[C@H]2O)[C@](C)(OC)C[C@@H](C)C(=O)[C@H](C)[C@H]2N(CCc3ccc(Cl)cc3)C(=O)O[C@]12C` [Example 5, 3',3'-N-Bisdesmethyl-3'-N-cyclobutyl-3'-N-isopropyl-11-deoxy-11-[carboxy-(4-chlorophenethylamino)]-6-O-methyl-erythromycin A 11,12-(cyclic carbamate)], for which the Ki in assay [1] was 0.832 nM. Besides, the antagonist equilibrium constant (Kb) on rat pituitary cells is 0.832 nM.

For the molecule `CC[C@H]1OC(=O)[C@H](C)[C@@H](O[C@H]2C[C@@](C)(OC)[C@@H](O)[C@H](C)O2)[C@H](C)[C@@H](O[C@@H]2O[C@H](C)C[C@H](N(CC3CC3)CC3CC3)[C@H]2O)[C@](C)(OC)C[C@@H](C)C(=O)[C@H](C)[C@H]2N(CCc3ccc(Cl)c(F)c3)C(=O)O[C@]12C` [Example 13, 3',3'-N-Bisdesmethyl-3',3'-N-biscyclopropylmethyl-11-deoxy-11-[carboxy-(4-chloro-3-fluorophenethylamino)]-6-O-methyl-erythromycin A 11,12-(cyclic carbamate)], the Ki in assay [1] is 1.15 nM. For the same molecule, on rat pituitary cells, the Kb was 0.295 nM.

Consider `CC[C@H]1OC(=O)[C@H](C)[C@@H](O[C@H]2C[C@@](C)(OC)[C@@H](O)[C@H](C)O2)[C@H](C)[C@@H](O[C@@H]2O[C@H](C)C[C@H](N(C3CCC3)C3CCC3)[C@H]2O)[C@](C)(OC)C[C@@H](C)C(=O)[C@H](C)[C@H]2N(CCc3ccc(F)c(Cl)c3)C(=O)O[C@]12C` [Example 14, 3',3'-N-Bisdesmethyl-3',3'-N-biscyclobutyl-11-deoxy-11-[carboxy-(3-chloro-4-fluorophenethylamino)]-O-methyl-erythromycin A 11,12-(cyclic carbamate)], for which the Ki in assay [1] is 0.251 nM. The Kb on rat pituitary cells was 0.759 nM.

On to `CC[C@H]1OC(=O)[C@H](C)[C@@H](O[C@H]2C[C@@](C)(OC)[C@@H](O)[C@H](C)O2)[C@H](C)[C@@H](O[C@@H]2O[C@H](C)C[C@H](N(CC3CC3)CC3CC3)[C@H]2O)[C@](C)(OC)C[C@@H](C)C(=O)[C@H](C)[C@H]2N(CCc3ccc(F)c(F)c3)C(=O)O[C@]12C` [Example 17, 3',3'-N-Bisdesmethyl-3',3'-N-biscyclopropylmethyl-11-deoxy-11-[carboxy-(3,4-difluorophenethylamino)]-6-O-methyl-erytromycin A 11,12-(cyclic carbamate)], for which the Ki in assay [1] is 3.16 nM. Also, on rat pituitary cells, the Kb is 1.55 nM.

The term pA2 denotes a measure of antagonist potency on a negative log scale. For orientation: Kb means the affinity of an antagonist, worked out from how it opposes an agonist.
